According to ChEMBL document CHEMBL1132828, “Pharmacophore identification of a specific CXCR4 inhibitor, T140, leads to development of effective anti-HIV agents with very high selectivity indexes” (Bioorg Med Chem Lett, 2000):
Where a SMILES comes first, the peptide text is derived from it. Bridges are numbered along the chain shown (N, C = ends). [ ]: non-standard residue; d: D form. 2Nal = N[C@@H](Cc1ccc2ccccc2c1)C(=O)O; Cit = NC(=O)NCCC[C@H](N)C(=O)O

Key:
[1] = test system: MT4; assay: Compound was tested for reduction of the viability of mock infected MT-4 cell in test-I; assay type: functional; settings: Homo sapiens
[2] = test system: MT4; assay: Compound was tested for reduction of the viability of mock infected MT-4 cell in test-II; assay type: functional; settings: Homo sapiens
[3] = Ratio of cytotoxic concentration (CC50) in test-I to that of EC50 of compound; assay type: functional, Homo sapiens
[4] = Ratio of cytotoxic concentration (CC50) in test-II to that of EC50 of compound; assay type: functional, Homo sapiens
[5] = test system: Human immunodeficiency virus 1; assay: Inhibition of HIV-induced cytopathogenicity in MT-4 cell (ZIDOVUDINE control); assay type: functional, organism-based; settings: Human immunodeficiency virus 1, MT4
[6] = Ratio of cytotoxic concentration (CC50) in test-I to that of EC50 of compound; Not tested; assay type: functional

Compound	CC50 [1]	CC50 [2]	Ratio [3]	Ratio [4]	EC50 [5]	Ratio [6]
Cc1cn([C@H]2C[C@H](N=[N+]=[N-])[C@@H](CO)O2)c(=O)[nH]c1=O [ZIDOVUDINE]	190 µM	< 20 µM	4000	<410	0.048 µM	–
C[C@@H]1NC(=O)[C@H](Cc2ccc(O)cc2)NC(=O)[C@@H](NC(=O)[C@H](Cc2ccc3ccccc3c2)NC(=O)[C@H](CCCN=C(N)N)NC(=O)[C@@H](N)CCCN=C(N)N)CSSC[C@@H](C(=O)N[C@@H](CCCN=C(N)N)C(=O)O)NC(=O)[C@H](CCCNC(N)=O)NC(=O)[C@H](CCCN=C(N)N)NC(=O)[C@H](Cc2ccc(O)cc2)NC(=O)[C@@H]2CCCN2C(=O)[C@@H](CCCCN)NC(=O)[C@H](CCCCN)NC1=O	> 40 µM	–	–	–	–	>4500
NCCCC[C@@H]1NC(=O)[C@H](CCCN=C(N)N)NC(=O)[C@H](Cc2ccc(O)cc2)NC(=O)[C@@H](NC(=O)[C@H](Cc2ccc3ccccc3c2)NC(=O)[C@H](CCCN=C(N)N)NC(=O)[C@@H](N)CCCN=C(N)N)CSSC[C@@H](C(=O)N[C@@H](CCCN=C(N)N)C(=O)O)NC(=O)[C@H](CCCNC(N)=O)NC(=O)[C@H](CCCN=C(N)N)NC(=O)[C@H](Cc2ccc(O)cc2)NC(=O)[C@@H]2CCCN2C(=O)[C@@H](CCCCN)NC1=O (H-RR[2Nal]CYRK[dK]PYR[Cit]CR-OH; disulfide 4-13)	> 1 µM	96 µM	>>300	29000	–	–
NCCCC[C@@H]1NC(=O)[C@H](CCCNC(N)=O)NC(=O)[C@H](Cc2ccc(O)cc2)NC(=O)[C@@H](NC(=O)[C@H](Cc2ccc3ccccc3c2)NC(=O)[C@H](CCCN=C(N)N)NC(=O)[C@@H](N)CCCN=C(N)N)CSSC[C@@H](C(=O)N[C@@H](CCCN=C(N)N)C(=O)O)NC(=O)[C@H](CCCNC(N)=O)NC(=O)[C@H](CCCN=C(N)N)NC(=O)[C@H](Cc2ccc(O)cc2)NC(=O)[C@@H]2CCCN2C(=O)[C@@H](CCCCN)NC1=O	> 80 µM	310 µM	>29000	160000	–	–
